Source: patent US20200390767A1, “Formulations of 4-(7-Hydroxy-2-isopropyl-4-oxo-4H-quinazolin-3-yl)-benzonitrile” (NOVARTIS AG, priority 2019, published 2020)
Values joined by “and” are separate entries in the source; they are usually repeats but may differ in a detail not shown here. Equal entries are not always repeated.

Experiments:
epithelial wound = assay: PRK clinical study, size of epithelial defect by slit lamp exam; format: in vivo, human
Source text: Adverse events and serious adverse events included an assessment of both systemic and ocular assessments. Systemic safety assessments included regular assessments of height and weight, vital signs, reporting medication errors including misuse/abuse, pregnancy reporting and early phase safety monitoring. The misuse/abuse, pregnancy reporting and early phase safety monitoring were not assessed for the study. Ocular safety assessments included the following: • Best-corrected visual acuity (BCVA) and uncorrected visual acuity (UCVA): Was measured at each visit using an ETDRS visual acuity chart at 4 meters (13 feet) or 1 meter (for patients that cannot read the 4 meter chart). The BCVA scoring was done based on the number of correctly read letters plus 30. If visual acuity was so poor that the patient could not read any of the largest letters at 1 meter, count fingers and hand movement vision and light perception was tested. • Intraocular Pressure (TOP): IOP measurements were conducted with applanation tonometry or Tonopen. • Dilated fundus exam: The dilated fundus examination included ophthalmoscopic assessments of the vitreous, retina/macula/choroid, and optic nerve. Evaluations for retinal tear/detachment, retinal hemorrhage, vitreous hemorrhage density, vitreous haze grading and abnormal findings were done and scored according to grading criteria. • Ocular hyperemia: Conjunctival redness of the bulbar conjunctiva in each eye at the slit lamp according to the McMonnies redness scale was graded. […] By adjusting the calibrated slit beam width and height, the maximum horizontal (wound width) and vertical dimensions (wound height) of the surgical epithelial wound was estimated. The evaluation was performed until wound closure and report of wound size as 0 horizontal and 0 vertical dimensions. • Slit-lamp biomicroscopy: Ocular signs (eyelids/conjunctiva, cornea, lens, and iris/anterior chamber) was assessed in both eyes by slit lamp biomicroscopy according to the grading criteria. • Blink rate: A blink was defined as a bilateral paroxysmal closure of the eyelids (duration <1 second) in the absence of a provoking external stimulus. Each blink assessment lasted for 2 min (or as close to 2 minutes as possible with minimum time 1 minute) and the obtained blink rate was averaged to calculate blink rate in blinks/min. • Tear production (Schirmer's test without anesthesia): The test was performed without anesthetic in both eyes simultaneously. Tear secretion was measured in millimeters of the length of strip wetted by tears. […] The strip was wetted with 1 drop of sterile saline and flicked to remove excess saline. The patient blinked several times to ensure dispersion of the dye throughout the tear film prior to grading on a scale of 0-3 (0=Normal, No staining; 1=Mild, Superficial stippling micropunctate staining; 2=Moderate, Macropunctate staining with some coalescent areas and 3=Severe, Numerous coalescent macropunctate areas and/or patches) for each of 5 zones (central plus 4 quadrants).
Size of epithelial defect by slit lamp exam: In order to assess the rate of wound healing after administration of compound I, the size of the epithelial defect in both compound I and Vehicle treated populations was measured. The elliptical area of epithelial wound size was calculated as follows: Area (mm2)=width×height×pi, from the width and height of the epithelial defect measured at the slit lamp. The difference in epithelial wound area between compound I and Vehicle was not noticeably different at any time point except at Day 2 post-PRK surgery (all p-values for the difference in area was >0.35). On Day 2 (24 hours post-operative), the difference in average epithelial defect area between patients treated with compound I vs. Vehicle was 11.23 mm^2 (p value=0.034). This difference was not clinically significant in the immediate post-operative period. […]

[1] = system: postoperative ocular pain in patients undergoing photorefractive keratectomy (PRK) surgery; assay: PRK clinical study, VAS pain severity; format: in vivo, human
Experimental: The study was a proof of concept, double-masked, randomized, vehicle-controlled study of compound I administered as eye drops in addition to standard of care treatment in patients after PRK surgery. PRK surgery was performed as an outpatient procedure under topical anesthesia with removal of the corneal epithelium to expose the stroma for the laser ablation. Compound I dosing was as single eye drop of 2.5% (0.925 mg/drop), administered four times daily (every six hours) in one eye from immediate post-op (time 0) to last dose at 72 hours.
The study consisted of 2 treatment periods using a crossover design. Patients underwent PRK surgery on 2 separate occasions (periods), one eye at a time. Patients were randomized to receive either compound 1 or vehicle following procedure 1 and the alternate following procedure 2.
Patient subjective experience of pain was recorded using VAS, a numeric assessment of pain between 0 and 100, with 0 representing no pain, and 100 representing worst imaginable pain. […] Since it was important clinically to both decrease the maximum pain as well as the overall pain that the patient experiences during the immediate postoperative period, the two periods of 6 hours and up to 12 hours postoperatively, were evaluated as primary endpoints. All evaluable VAS data was collected using an ePRO, which was an electronic device (cell phone with software application), on which patients marked their pain levels at the appropriate time points.
Rescue oral analgesics: It is not ethical to refuse pain control medication to patients postoperatively as part of a clinical trial. […] Because the use of oral rescue medication may be a potential confounder of the pain VAS evaluation, three approaches were used when analyzing pain VAS scores to account for the influence of pain meds (assuming 4 hours of rescue medication effect): (1) any recorded VAS score within 4 hours after use of rescue medication was considered missing; (2) all the recorded VAS scores was used; and (3) any recorded VAS scores within 4 hours after rescue medication use was imputed by the record taken prior to the rescue medication.
The mean VAS pain severity scores at 6 hours and 0-12 hours post-operatively are presented in Table 22 and Table 23, respectively, and shown in FIG. 3. The primary analysis was performed using the Primary PD analysis set.

CC(C)c1nc2cc(O)ccc2c(=O)n1-c1ccc(C#N)cc1 [Compound I, 4-(7-hydroxy-2-isopropyl-4-oxo-4H-quinazolin-3-yl)-benzonitrile]
Epithelial Wound Size, Area, Difference compound I-Vehicle (epithelial wound; Day 1): 2.98 (27.33) mm^2
Epithelial Wound Size, Area, raw mean (SD) (epithelial wound; Day 1): 220.15 (32.26) mm^2
Epithelial Wound Size, Area, Difference compound I-Vehicle (epithelial wound; Day 2): 11.23 mm^2 and 11.23 (32.30) mm^2
Epithelial Wound Size, Area, raw mean (SD) (epithelial wound; Day 2): 83.02 (32.08) mm^2
Epithelial Wound Size, Area, Difference compound I-Vehicle (epithelial wound; Day 3): 1.02 (8.78) mm^2
Epithelial Wound Size, Area, raw mean (SD) (epithelial wound; Day 3): 6.75 (12.66) mm^2
Epithelial Wound Size, Area, Difference compound I-Vehicle (epithelial wound; Day 4): 0.31 (2.11) mm^2
Epithelial Wound Size, Area, raw mean (SD) (epithelial wound; Day 4): 0.39 (2.04) mm^2
Epithelial Wound Size, Area, Difference compound I-Vehicle (epithelial wound; Day 8): 0.00 (0.00) mm^2
Epithelial Wound Size, Area, raw mean (SD) (epithelial wound; Day 8): 0.00 (0.00) mm^2
wound healing compared to Vehicle (epithelial wound; human, in vivo): no delay in wound healing
VAS pain severity score, % Diff ([1]; 0-12 hours post-operatively): −22%
VAS pain severity score, Diff (compound I-Vehicle) ([1]; 0-12 hours post-operatively): −8.56
VAS pain severity score, model estimated mean ([1]; 0-12 hours post-operatively, 2.5% four times daily, Primary PD analysis set): 30.90
VAS pain severity versus Vehicle during the first 18 hours after surgery ([1]; 6 out of the 7 time points, p-value threshold 0.10): statistically significantly lower VAS pain severity scores
VAS pain severity score, % Diff ([1]; 6 hours post-operatively): −25%
VAS pain severity score, Diff (compound I-Vehicle) ([1]; 6 hours post-operatively): −11.1
VAS pain severity score, model estimated mean (SE) ([1]; 6 hours post-operatively, 2.5% four times daily, Primary PD analysis set): 34.63 (4.05)
mean change in VAS score after instillation of eye drop ([1]; 6.5 hours versus 6 hours post-operative): −3.1
mean change in VAS score after instillation of eye drop ([1]; 18.5 hours versus 18 hours post-operative): 2.8
mean change in VAS score after instillation of eye drop ([1]; 24.5 hours versus 24 hours post-operative): 1.3
